Laboratory results taken from PMC7377239, “Cardiovascular Effects of Polychlorinated Biphenyls and Their Major Metabolites” (Environmental Health Perspectives, 2020).
Counter-ions that a name gives are not always drawn. Like-named read-outs stand apart in the source and are kept apart here.

Test system: iCell cardiomyocytes (human iPSC-derived cardiomyocytes)
Assay: High-content imaging of cytotoxicity and mitochondrial integrity in iPSC-CMs
Assay type: cell-based
Settings: Homo sapiens; for viability at 0.01 µM / activity at 0.01 µM / viability at 0.1 µM / activity at 0.1 µM / viability at 1 µM / activity at 1 µM / viability at 10 µM / activity at 10 µM / viability at 100 µM / activity at 100 µM: 0.00 µM = 100.00; for viability at 0.1 µM / activity at 0.1 µM: 0.10 µM
Method in brief: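 Cardiomyocytes grown on gelatinized 384-well plates received fresh medium on the experiment day and were then exposed to chemicals at 0.01–100μM. Nuclei and mitochondria were labeled with Hoechst 33342 and MitoTracker™ Orange, then fixed, and imaged on an ImageXpress® Micro Confocal system. Four-parameter logistic concentration–response fits in R, with a one-standard-deviation vehicle cutoff, gave point-of-departure values.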

[1] = Cardiomyocyte, 1.5 h, cardiomyocytes (cm), cam, 90 min, read-out: POD cm.cam.90min
[2] = Cardiomyocyte, 1.5 h, cardiomyocytes (cm), mii, 90 min, read-out: POD cm.mii.90min
[3] = Cardiomyocyte, 1.5 h, cardiomyocytes (cm), mito, 90 min, read-out: POD cm.mito.90min
[4] = Cardiomyocyte, 1.5 h, cardiomyocytes (cm), tc, 90 min, read-out: POD cm.tc.90min
[5] = Cardiomyocyte, 24 h, cardiomyocytes (cm), cam, 24 hrs, read-out: POD cm.cam.24hrs
[6] = Cardiomyocyte, 24 h, cardiomyocytes (cm), mii, 24 hrs, read-out: POD cm.mii.24hrs
[7] = Cardiomyocyte, 24 h, cardiomyocytes (cm), mito, 24 hrs, read-out: POD cm.mito.24hrs
[8] = Cardiomyocyte, 24 h, cardiomyocytes (cm), tc, 24 hrs, read-out: POD cm.tc.24hrs
[9] = Cardiomyocyte, 1.5 h, read-out: cm.cam.90min
[10] = Cardiomyocyte, 1.5 h, read-out: cm.mii.90min
[11] = Cardiomyocyte, 1.5 h, read-out: cm.mito.90min
[12] = Cardiomyocyte, 1.5 h, read-out: cm.tc.90min
[13] = Cardiomyocyte, 24 h, read-out: cm.cam.24hrs
[14] = Cardiomyocyte, 24 h, read-out: cm.mii.24hrs
[15] = Cardiomyocyte, 24 h, read-out: cm.mito.24hrs
[16] = Cardiomyocyte, 24 h, read-out: cm.tc.24hrs
[17] = iPSC-CM, 1.5 h, iPSC-CM, read-out: cm.cam.90min POD
[18] = iPSC-CM, 1.5 h, iPSC-CM, read-out: cm.mii.90min POD
[19] = iPSC-CM, 1.5 h, iPSC-CM, read-out: cm.mito.90min POD
[20] = iPSC-CM, 1.5 h, iPSC-CM, read-out: cm.tc.90min POD
[21] = iPSC-CM, 24 h, iPSC-CM, read-out: cm.cam.24hrs POD
[22] = iPSC-CM, 24 h, iPSC-CM, read-out: cm.mii.24hrs POD
[23] = iPSC-CM, 24 h, iPSC-CM, read-out: cm.mito.24hrs POD
[24] = iPSC-CM, 24 h, iPSC-CM, read-out: cm.tc.24hrs POD

SMILES: O=S(=O)(O)Oc1cc(-c2ccccc2)ccc1Cl [3-PCB 3 sulfate]
- minimal effective concentration [1]: 100 µM
- minimal effective concentration [2]: 100 µM
- minimal effective concentration [3]: 100 µM
- minimal effective concentration [4]: 100 µM
- minimal effective concentration [5]: 100 µM
- minimal effective concentration [6]: 22.8 µM
- minimal effective concentration [7]: 100 µM
- minimal effective concentration [8]: 100 µM

SMILES: O=S(=O)(O)Oc1cc(-c2ccccc2)ccc1Cl [3-yl PCB 3 sulfate]
- viability at 0.01 µM [9]: 100%
- activity at 0.01 µM [10]: 110%
- activity at 0.01 µM [11]: 100%
- viability at 0.01 µM [12]: 101%
- viability at 0.1 µM [9]: 97.4%
- activity at 0.1 µM [10]: 109%
- activity at 0.1 µM [11]: 97.4%
- viability at 0.1 µM [12]: 97.6%
- viability at 1 µM [9]: 104%
- activity at 1 µM [10]: 106%
- activity at 1 µM [11]: 104%
- viability at 1 µM [12]: 104%
- viability at 10 µM [9]: 106%
- activity at 10 µM [10]: 98.4%
- activity at 10 µM [11]: 106%
- viability at 10 µM [12]: 106%
- viability at 100 µM [9]: 104%
- activity at 100 µM [10]: 108%
- activity at 100 µM [11]: 104%
- viability at 100 µM [12]: 104%
- viability at 0.01 µM [13]: 87.7%
- activity at 0.01 µM [14]: 113%
- activity at 0.01 µM [15]: 86%
- viability at 0.01 µM [16]: 88.2%
- viability at 0.1 µM [13]: 99.9%
- activity at 0.1 µM [14]: 109%
- activity at 0.1 µM [15]: 99.5%
- viability at 0.1 µM [16]: 101%
- viability at 1 µM [13]: 96.5%
- activity at 1 µM [14]: 102%
- activity at 1 µM [15]: 93.7%
- viability at 1 µM [16]: 96.4%
- viability at 10 µM [13]: 91.9%
- activity at 10 µM [14]: 89.9%
- activity at 10 µM [15]: 88.6%
- viability at 10 µM [16]: 92.3%
- viability at 100 µM [13]: 96.9%
- activity at 100 µM [14]: 83.9%
- activity at 100 µM [15]: 97.6%
- viability at 100 µM [16]: 97.8%
- minimal effective concentration [17]: 100 µM
- minimal effective concentration [18]: 100 µM
- minimal effective concentration [19]: 100 µM
- minimal effective concentration [20]: 100 µM
- minimal effective concentration [21]: 100 µM
- minimal effective concentration [22]: 22.8 µM
- minimal effective concentration [23]: 100 µM
- minimal effective concentration [24]: 100 µM

SMILES: Oc1ccc(-c2ccc(Cl)cc2)cc1 [4'-OH PCB3]
- viability at 0.01 µM [9]: 98.1%
- activity at 0.01 µM [10]: 97%
- activity at 0.01 µM [11]: 98.1%
- viability at 0.01 µM [12]: 98.1%
- viability at 0.1 µM [9]: 101%
- activity at 0.1 µM [10]: 100%
- activity at 0.1 µM [11]: 101%
- viability at 0.1 µM [12]: 102%
- viability at 1 µM [9]: 100%
- activity at 1 µM [10]: 98.2%
- activity at 1 µM [11]: 100%
- viability at 1 µM [12]: 100%
- viability at 10 µM [9]: 98%
- activity at 10 µM [10]: 98.5%
- activity at 10 µM [11]: 97.9%
- viability at 10 µM [12]: 97.9%
- viability at 100 µM [9]: 0%
- activity at 100 µM [10]: 0%
- activity at 100 µM [11]: 0%
- viability at 100 µM [12]: 0.0231%
- viability at 0.01 µM [13]: 98.2%
- activity at 0.01 µM [14]: 96.5%
- activity at 0.01 µM [15]: 95.9%
- viability at 0.01 µM [16]: 98.1%
- viability at 0.1 µM [13]: 99.2%
- activity at 0.1 µM [14]: 99.8%
- activity at 0.1 µM [15]: 97.4%
- viability at 0.1 µM [16]: 99%
- viability at 1 µM [13]: 104%
- activity at 1 µM [14]: 106%
- activity at 1 µM [15]: 103%
- viability at 1 µM [16]: 105%
- viability at 10 µM [13]: 102%
- activity at 10 µM [14]: 93.5%
- activity at 10 µM [15]: 103%
- viability at 10 µM [16]: 102%
- viability at 100 µM [13]: 0.07%
- activity at 100 µM [14]: 9.32%
- activity at 100 µM [15]: 0.05%
- viability at 100 µM [16]: 0.07%
- minimal effective concentration [17]: 12.4 µM
- minimal effective concentration [18]: 16 µM
- minimal effective concentration [19]: 11.5 µM
- minimal effective concentration [20]: 11.3 µM
- minimal effective concentration [21]: 32.3 µM
- minimal effective concentration [22]: 15.4 µM
- minimal effective concentration [23]: 37.2 µM
- minimal effective concentration [24]: 38.4 µM

SMILES: Oc1ccc(-c2ccc(Cl)cc2)cc1 [4'-OH-PCB 3]
- minimal effective concentration [1]: 12.4 µM
- minimal effective concentration [2]: 16 µM
- minimal effective concentration [3]: 11.5 µM
- minimal effective concentration [4]: 11.3 µM
- minimal effective concentration [5]: 32.3 µM
- minimal effective concentration [6]: 15.4 µM
- minimal effective concentration [7]: 37.2 µM
- minimal effective concentration [8]: 38.4 µM
